In doi:10.1101/215335v1 (biorxiv, 2017) one finds inhibition data, which are given here for one compound.

As a reminder, the inhibition is the relative decrease from the control value, in per cent.

Structures are written as SMILES.

The assay deals with T1, TaALMT1 (Triticum aestivum, UniProt Q76LB1).
T1 sequence (Q76LB1 1-459): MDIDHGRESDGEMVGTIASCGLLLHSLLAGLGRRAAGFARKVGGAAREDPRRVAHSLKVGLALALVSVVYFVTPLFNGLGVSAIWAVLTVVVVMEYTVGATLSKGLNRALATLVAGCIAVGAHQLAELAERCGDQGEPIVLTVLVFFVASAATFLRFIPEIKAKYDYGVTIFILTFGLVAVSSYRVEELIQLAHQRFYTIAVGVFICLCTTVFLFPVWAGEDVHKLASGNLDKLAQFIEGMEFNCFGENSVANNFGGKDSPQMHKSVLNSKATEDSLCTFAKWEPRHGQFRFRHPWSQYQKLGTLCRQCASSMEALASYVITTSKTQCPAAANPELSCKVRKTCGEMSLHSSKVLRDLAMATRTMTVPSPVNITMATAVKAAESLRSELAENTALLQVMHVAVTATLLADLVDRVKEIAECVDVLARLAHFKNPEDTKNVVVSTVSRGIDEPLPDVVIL
Put plainly: TEVC in Xenopus oocytes, malate-activated inward current. The format is cell-based. To be noted: read-out: % inhibition at 100 μM.

As for `C=CC(N)CCC(=O)O` (stereo not shown) [vigabatrin], the inhibition at 100 µM turned out to be 100%.
